The results in this text go back to patent US9809574B2, “Isoindoline or isoquinoline compounds, a process for their preparation and pharmaceutical compositions containing them” (LES LABORATOIRES SERVIER, priority 2013, dated 2017).

One may read the IC50 as the concentration at which inhibition is half-maximal. The inhibition is the percentage by which the read-out fell short of the control.

Assay [1] deals with Bcl-2 protein (histag-Bcl-2, UniProtKB P10415) (Homo sapiens (Human), UniProt P10415). Kind of assay: Inhibition of Bcl-2 by the fluorescence polarisation technique. The format is binding. The settings on record: for IC50: fluorescence polarisation test, incubation for 2 hours, read-out: IC50 (nM) Bcl-2 FP. An excerpt:
For partial inhibitors, the percentage fluorescence polarisation inhibition for a given concentration of the test compound is indicated.
On the technique in general: Fluorescence polarisation rises when a labelled molecule tumbles more slowly, as on binding a larger partner.

For assay [2], the system named is RS4; 11 leukaemia cell line. Kind of assay: In vitro cytotoxicity, Microculture Tetrazolium Assay (MTT). The settings on record: Homo sapiens, 11 cells exposed for 48 hours. The format is cell-based. As to the method:
The cytotoxicity studies were carried out on the RS4; 11 leukaemia cell line and on H146 small Cell Lung Carcinoma cell line. The cells are distributed onto microplates and exposed to the test compounds for 48 hours. The cell viability is then quantified by a colorimetric assay, the Microculture Tetrazolium Assay (Cancer Res., 1987, 47, 939-942).

Counter-ions that a name gives are not always drawn. Some results are limits rather than exact numbers.

Chain of Bcl-2 protein (P10415 whole entry): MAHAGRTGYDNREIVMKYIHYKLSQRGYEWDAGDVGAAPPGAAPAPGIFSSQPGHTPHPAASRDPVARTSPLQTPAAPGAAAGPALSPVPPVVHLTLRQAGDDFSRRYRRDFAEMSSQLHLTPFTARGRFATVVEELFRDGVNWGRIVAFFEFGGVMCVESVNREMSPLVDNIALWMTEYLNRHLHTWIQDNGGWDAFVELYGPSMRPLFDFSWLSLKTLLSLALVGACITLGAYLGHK

On to `CN(C(=O)c1cc(-c2cc3c(cc2C(=O)N2Cc4ccccc4C[C@H]2CN2CCOCC2)CN(C(=O)OC(C)(C)C)CC3)n2c1CCCC2)c1ccc(O)cc1` [Example 1, tert-Butyl 6-{1-[(4-hydroxyphenyl)(methyl)carbamoyl]-5,6,7,8-tetrahydroindolizin-3-yl}-7-[(3S)-3-(morpholin-4-ylmethyl)-1,2,3,4-tetrahydroisoquinoline-2-carbonyl]-1,2,3,4-tetrahydroisoquinoline-2-carboxylate], for which the values for the IC50 in assay [1] and in assay [2] were 13 nM and 140 nM, respectively.

As for `CN(C(=O)c1cc(-c2cc3c(cc2C(=O)N2Cc4ccccc4C[C@H]2CN2CCOCC2)CNCC3)n2c1CCCC2)c1ccc(O)cc1` [Example 2, N-(4-Hydroxyphenyl)-N-methyl-3-{7-[(3S)-3-(morpholin-4-ylmethyl)-1,2,3,4-tetrahydroisoquinoline-2-carbonyl]-1,2,3,4-tetrahydroisoquinolin-6-yl}-5,6,7,8-tetrahydroindolizine-1-carboxamide dihydrochloride], the figures for the IC50 in assay [1] and in assay [2] were 397 nM and greater than 1880 nM, respectively.

For the compound `CN(C(=O)c1cc(-c2cc3c(cc2C(=O)N2Cc4ccccc4C[C@H]2CN2CCOCC2)CN(S(=O)(=O)c2ccccc2)CC3)n2c1CCCC2)c1ccc(O)cc1` [Example 3, 3-[2-(Benzenesulfonyl)-7-[(3S)-3-(morpholin-4-ylmethyl)-1,2,3,4-tetrahydroisoquinoline-2-carbonyl]-1,2,3,4-tetrahydroisoquinolin-6-yl]-N-(4-hydroxyphenyl)-N-methyl-5,6,7,8-tetrahydroindolizine-1-carboxamide], the results for the IC50 in assay [1] and in assay [2] were 18 nM and 236 nM, respectively.

With `CN(C(=O)c1cc(-c2cc3c(cc2C(=O)N2Cc4ccccc4C[C@H]2CN2CCOCC2)CN(S(=O)(=O)Cc2ccccc2)CC3)n2c1CCCC2)c1ccc(O)cc1` [Example 4, N-(4-Hydroxyphenyl)-N-methyl-3-{7-[(3S)-3-(morpholin-4-ylmethyl)-1,2,3,4-tetrahydroisoquinoline-2-carbonyl]-2-phenylmethanesulfonyl-1,2,3,4-tetrahydroisoquinolin-6-yl}-5,6,7,8-tetrahydroindolizine-1-carboxamide], the IC50 stood at 9.2 nM in assay [1] and 71 nM in assay [2].

As to `CN(C(=O)c1cc(-c2cc3c(cc2C(=O)N2Cc4ccccc4C[C@H]2CN2CCOCC2)CN(S(=O)(=O)c2ccc4ccccc4c2)CC3)n2c1CCCC2)c1ccc(O)cc1` [Example 5, N-(4-Hydroxyphenyl)-N-methyl-3-{7-[(3S)-3-(morpholin-4-ylmethyl)-1,2,3,4-tetrahydroisoquinoline-2-carbonyl]-2-(naphthalene-2-sulfonyl)-1,2,3,4-tetrahydroisoquinolin-6-yl}-5,6,7,8-tetrahydroindolizine-1-carboxamide], the IC50 is 43 nM in assay [1] and 70 nM in assay [2].

Take `CN(C(=O)c1cc(-c2cc3c(cc2C(=O)N2Cc4ccccc4C[C@H]2CN2CCOCC2)CN(C(=O)OC(C)(C)C)C3)n2c1CCCC2)c1ccc(O)cc1` [Example 6, tert-Butyl 5-{1-[(4-hydroxyphenyl)(methyl)carbamoyl]-5,6,7,8-tetrahydroindolizin-3-yl}-6-[(3S)-3-(morpholin-4-ylmethyl)-1,2,3,4-tetrahydroisoquinoline-2-carbonyl]-2,3-dihydro-1H-isoindole-2-carboxylate]: the IC50 was 95 nM in assay [1] and greater than 1880 nM in assay [2].

Turning to `CN(C(=O)c1cc(-c2cc3c(cc2C(=O)N2Cc4ccccc4C[C@H]2CN2CCOCC2)CNC3)n2c1CCCC2)c1ccc(O)cc1` [Example 7, N-(4-Hydroxyphenyl)-N-methyl-3-{6-[(3S)-3-(morpholin-4-ylmethyl)-1,2,3,4-tetrahydroisoquinoline-2-carbonyl]-2,3-dihydro-1H-isoindol-5-yl}-5,6,7,8-tetrahydroindolizine-1-carboxamide; dihydrochloride salt], the inhibition at 3.3 µM in assay [1] (partial inhibitor, concentration of test compound 3.3 μM, read-out: percentage fluorescence polarisation inhibition (Bcl-2 FP)) was 72%. In assay [2], this compound had an IC50 of 1080 nM.

In the case of `CN(C(=O)c1cc(-c2cc3c(cc2C(=O)N2Cc4ccccc4C[C@H]2CN2CCOCC2)CN(C(=O)Cc2ccccc2)C3)n2c1CCCC2)c1ccc(O)cc1` [Example 8, N-(4-Hydroxyphenyl)-N-methyl-3-{6-[(3S)-3-(morpholin-4-ylmethyl)-1,2,3,4-tetrahydroisoquinoline-2-carbonyl]-2-(2-phenylacetyl)-2,3-dihydro-1H-isoindol-5-yl}-5,6,7,8-tetrahydroindolizine-1-carboxamide; hydrochloride salt], the IC50 in assay [1] stood at 7.3 nM; in assay [2], 98 nM.

Consider `CN(C(=O)c1cc(-c2cc3c(cc2C(=O)N2Cc4ccccc4C[C@H]2CN2CCOCC2)CN(C(=O)CCc2ccccc2)C3)n2c1CCCC2)c1ccc(O)cc1` [Example 9, N-(4-Hydroxyphenyl)-N-methyl-3-{6-[(3S)-3-(morpholin-4-ylmethyl)-1,2,3,4-tetrahydroisoquinoline-2-carbonyl]-2-(3-phenylpropanoyl)-2,3-dihydro-1H-isoindol-5-yl}-5,6,7,8-tetrahydroindolizine-1-carboxamide hydrochloride], for which the IC50 amounted to 9 nM in assay [1] and 125 nM in assay [2].

For `C[C@@H]1Cc2ccccc2CN1C(=O)c1cc2c(cc1-c1cc(C(=O)N(C)c3ccc(O)cc3)c3n1CCCC3)CNC2` [Example 10, N-(4-Hydroxyphenyl)-N-methyl-3-{6-[(3R)-3-methyl-1,2,3,4-tetrahydroisoquinoline-2-carbonyl]-2,3-dihydro-1H-isoindol-5-yl}-5,6,7,8-tetrahydroindolizine-1-carboxamide], the IC50 in assay [1] was found to be 127 nM.

As to `CCC(=O)N1Cc2cc(C(=O)N3Cc4ccccc4C[C@H]3CN3CCOCC3)c(-c3cc(C(=O)N(C)c4ccc(O)cc4)c4n3CCCC4)cc2C1` [Example 11, N-(4-Hydroxyphenyl)-N-methyl-3-{6-[(3S)-3-(morpholin-4-ylmethyl)-1,2,3,4-tetrahydroisoquinoline-2-carbonyl]-2-propanoyl-2,3-dihydro-1H-isoindol-5-yl}-5,6,7,8-tetrahydroindolizine-1-carboxamide hydrochloride], the figures for the 50% inhibitory concentration (IC50) in assay [1] and in assay [2] were 22 nM and 763 nM, respectively.

Consider `CN(C(=O)c1cc(-c2cc3c(cc2C(=O)N2Cc4ccccc4C[C@H]2CN2CCOCC2)CN(C(=O)c2ccccc2)C3)n2c1CCCC2)c1ccc(O)cc1` [Example 12, 3-{2-Benzoyl-6-[(3S)-3-(morpholin-4-ylmethyl)-1,2,3,4-tetrahydroisoquinoline-2-carbonyl]-2,3-dihydro-1H-isoindol-5-yl}-N-(4-hydroxyphenyl)-N-methyl-5,6,7,8-tetrahydroindolizine-1-carboxamide hydrochloride], for which the IC50 in assay [1] amounted to 43 nM; in assay [2], 759 nM.

In the case of `C[C@@H]1Cc2ccccc2CN1C(=O)c1cc2c(cc1-c1cc(C(=O)N(C)c3ccc(O)cc3)c3n1CCCC3)CN(C(=O)OC(C)(C)C)C2` [Example 13, tert-Butyl 5-{1-[(4-hydroxyphenyl)(methyl)carbamoyl]-5,6,7,8-tetrahydroindolizin-3-yl}-6-[(3R)-3-methyl-1,2,3,4-tetrahydroisoquinoline-2-carbonyl]-2,3-dihydro-1H-isoindole-2-carboxylate], the figures for the IC50 in assay [1] and in assay [2] were 108 nM and 729 nM, respectively.

In the case of `C[C@@H]1Cc2ccccc2CN1C(=O)c1cc2c(cc1-c1cc(C(=O)N(C)c3ccc(O)cc3)c3n1CCCC3)CN(C(=O)Cc1ccccc1)C2` [Example 14, N-(4-Hydroxyphenyl)-N-methyl-3-{6-[(3R)-3-methyl-1,2,3,4-tetrahydroisoquinoline-2-carbonyl]-2-(2-phenylacetyl)-2,3-dihydro-1H-isoindol-5-yl}-5,6,7,8-tetrahydroindolizine-1-carboxamide], the IC50 in assay [1] is 7.9 nM; in assay [2], 27 nM.

For the compound `C[C@@H]1Cc2ccccc2CN1C(=O)c1cc2c(cc1-c1cc(C(=O)N(C)c3ccc(O)cc3)c3n1CCCC3)CN(C(=O)CCc1ccccc1)C2` [Example 15, N-(4-Hydroxyphenyl)-N-methyl-3-{6-[(3R)-3-methyl-1,2,3,4-tetrahydroisoquinoline-2-carbonyl]-2-(3-phenylpropanoyl)-2,3-dihydro-1H-isoindol-5-yl}-5,6,7,8-tetrahydroindolizine-1-carboxamide], the IC50 in assay [1] is 19 nM; in assay [2] it was 93 nM.

For `C[C@@H]1Cc2ccccc2CN1C(=O)c1cc2c(cc1-c1cc(C(=O)N(C)c3ccc(O)cc3)c3n1CCCC3)CCNC2` [Example 27, N-(4-Hydroxyphenyl)-N-methyl-3-{7-[(3R)-3-methyl-1,2,3,4-tetrahydroisoquinoline-2-carbonyl]-1,2,3,4-tetrahydroisoquinolin-6-yl}-5,6,7,8-tetrahydroindolizine-1-carboxamide; trifluoroacetic acid salt], in assay [1], the IC50 was determined as 83 nM.

Consider `Cc1c(C(=O)N(C)c2ccc(O)cc2)cc(-c2cc3c(cc2C(=O)N2Cc4ccccc4C[C@H]2C)CN(C(=O)CN2CCCCC2)C3)n1C` [Example 176, 5-{2-[2-(1-Piperidyl)acetyl]-6-[(3R)-3-methyl-1,2,3,4-tetrahydroisoquinoline-2-carbonyl]-2,3-dihydro-1H-isoindol-5-yl}-N-(4-hydroxyphenyl)-N,1,2-trimethyl-1H-pyrrole-3-carboxamide], for which the IC50 in assay [1] was 78 nM.

In the case of `Cc1c(C(=O)N(C)c2ccc(O)cc2)cc(-c2cc3c(cc2C(=O)N2Cc4ccccc4C[C@H]2C)CN(C(=O)Oc2ccc(OCCN(C)C)cc2)CC3)n1C` [Example 476, 4-[2-(Dimethylamino)ethoxy]phenyl 6-{4-[(4-hydroxyphenyl)(methyl)carbamoyl]-1,5-dimethyl-1H-pyrrol-2-yl}-7-[(3R)-3-methyl-1,2,3,4-tetrahydroisoquinoline-2-carbonyl]-1,2,3,4-tetrahydroisoquinoline-2-carboxylate], the IC50 in assay [1] is 1.8 nM.
